Patent publication US5340814A, “3-substituted methyl-2,3-dihydroimidazo[1,2-C] quinazoline derivatives, the preparation and use thereof” (National Science Council, priority 1992, dated 1994)

Experiments:
[1] = acting as serotonin-S2 and α1-adrenoceptor antagonist, respectively; cited from earlier work
α1-Adrenergic receptor = α1-Adrenergic receptor binding, [^3 H] prazosin, rat brain cortex membranes; details: 0.2 nM [^3 H] prazocin, pH 7.4, 30 min, room temperature
Procedure: (§1) After the removal of nuclei by centrifugation at 1000×g for 10 min, P2 membranes were pelleted by centrifuging the supernatant at 22,000×g for 20 min. After two periods of centrifugation at 22,000×g and resuspension in fresh buffer, the membrane suspension (about 2 mg/ml protein) was ready for use. α1 -Adrenergic receptor binding assays (in triplicate) were carried out with 0.2 nM [^3 H] prazocin in a final volume of 1.0 ml of Tris buffer at pH 7.4 for 30 min at room temperature, using 10 μM phentolamine to determine non-specific binding. The concentrations of synthetic compounds for competition binding were in the range of 0.1-200 nM. α2 -adrenergic receptor binding assays (in triplicate) were carried out with 1 nM [^3 H] clonidine in the presence of 10 mM MgCl2 and in a final volume of 1.0 ml of Tris buffer at pH 7.4 for 30 min at room temperature, using 10 μM clonidine to determine non-specific binding. The concentrations of synthetic compounds for competition binding were in the range of 0.1-100 μM. […] The amount of membrane protein used in each assay was in the range of 300-400 μg, as determined by the method of Lowry et al. The results are given in Table 2. […] All other chemicals used were reagent grade and were purchased from Sigma (St. Louis, Mo.).

α2-adrenergic receptor = molecular target: T1, α2-adrenergic receptor (Rattus norvegicus, UniProt P22909); assay: α2-Adrenergic receptor binding, [^3 H] clonidine, rat brain cortex membranes; details: 1 nM [^3 H] clonidine, 10 mM MgCl2, pH 7.4, 30 min, room temperature
T1 construct: from tissue; host or cells: rat brain cortex, P2 membranes
T1 sequence (P22909 1-465): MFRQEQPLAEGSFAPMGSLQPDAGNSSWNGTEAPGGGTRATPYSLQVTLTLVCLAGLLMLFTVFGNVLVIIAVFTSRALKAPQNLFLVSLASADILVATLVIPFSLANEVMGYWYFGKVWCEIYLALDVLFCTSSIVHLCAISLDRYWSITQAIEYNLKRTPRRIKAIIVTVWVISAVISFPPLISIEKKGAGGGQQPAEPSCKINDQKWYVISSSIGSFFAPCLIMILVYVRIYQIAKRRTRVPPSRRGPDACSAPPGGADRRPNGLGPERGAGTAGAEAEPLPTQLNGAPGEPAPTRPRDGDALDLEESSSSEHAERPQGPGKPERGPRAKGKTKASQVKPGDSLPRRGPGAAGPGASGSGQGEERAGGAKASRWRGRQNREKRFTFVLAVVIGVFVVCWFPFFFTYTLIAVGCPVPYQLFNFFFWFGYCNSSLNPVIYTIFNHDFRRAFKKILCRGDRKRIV
Procedure: as §1

[2] = Antihypertensive activity in anesthetized cats (blood pressure); assay type: in vivo, cat; details: pentobarbital-anesthetized cats
Procedure: The pharmacological activities of the compounds of the present invention are described in the following experiment. In this experiment, the test compounds used are as follows.
Adult cats of either sex, 2-3 Kg, anesthetized with pentobarbital sodium (30 mg/Kg i.p.) were used. The trachea was intubated to provide artificial respiration with air by means of a Harvard respirator (respiration rate=6-20/min and colume=40-50 ml/stroke). Both femoral artery and vein were cannulated with PE 150 to monitor blood pressure and for drug administration respectively. Body temperature was maintained at 37.5° C. with a heating pad and monitored with a rectal thermometer. Blood pressure was measured with a Statham P23D pressure transducer via a polyethylene cannula conducted to a right femoral artery. Heart rate was measured through a Grass Model 7B tachograph preamplifier triggered by the pulses of arterial blood pressure. All data were recorded on a Grass Model 7B polygraph.

| SMILES | Ki (α1-Adrenergic receptor) [nM] | MBP (2 hr) ([2]; dose 1 mg/Kg) [mmHg] | further results |
| --- | --- | --- | --- |
| COc1ccccc1N1CCN(CCn2c(=O)[nH]c3ccccc3c2=O)CC1.Cl [SGB-1534, reference compound] | 0.25 ± 0.06 |  | antihypertensive activity (in words), background art [1]: found to have antihypertensive activities |
| O=C(c1ccc(F)cc1)C1CCN(CCn2c(=S)[nH]c3ccccc3c2=O)CC1 [thioketanserin] |  |  | antihypertensive activity (in words), background art [1]: found to have antihypertensive activities |
| CSC1=Nc2ccccc2C2=NCC(CN3CCN(c4ccccc4Cl)CC3)N12 (stereo not drawn) [Example 9, 3-{4-[1-(2-chlorophenyl)piperazinyl]}methyl-5-methylthio-2,3-dihydroimidazo[1,2-c]quinazoline] | 0.34 ± 0.06 | 30 | Ki (α2-adrenergic receptor): 180 ± 7 nM |
| COC1=Nc2ccccc2C2=NCC(CN3CCN(c4ccccc4Cl)CC3)N12 (stereo not drawn) [Example 16, 3-{4-[1-(2-chlorophenyl)piperazinyl]}methyl-5-methoxy-2,3-dihydroimidazo[1,2-c]quinazoline] |  | 23 |  |
| COC1=Nc2ccccc2C2=NCC(CN3CCN(c4cccc(OC)c4)CC3)N12 (stereo not drawn) [Example 14, 3-{4-[1-(3-methoxyphenyl)piperazinyl]}methyl-5-methoxy-2,3-dihydroimidazo[1,2-c]quinazoline] | > 100 |  |  |
| COc1cccc(N2CCN(CC3CN=C4c5ccccc5NC(=O)N43)CC2)c1 (stereo not drawn) [Example 19, 3-{4-[1-(3-methoxyphenyl)piperazinyl]}methyl-2,3-dihydroimidazo[1,2-c]-quinazolin-5(6H)-one] | 5.76 ± 0.48 |  |  |
| CSC1=Nc2ccccc2C2=NCC(CN3CCN(c4ccccc4)CC3)N12 (stereo not drawn) [Example 5, 3-[4-(1-Phenyl)piperazinyl]methyl-5-methylthio-2,3-dihydroimidazo[1,2-c]quinazoline] | > 10 |  |  |
| COc1cccc(N2CCN(CC3CN=C4c5ccccc5N=C(SC)N43)CC2)c1 (stereo not drawn) [Example 7, 3-{4-[1-(3-methoxyphenyl)piperazinyl]}methyl-5-methylthio-2,3-dihydroimidazo[1,2-c]quinazoline] | 48.9 ± 20.4 |  | Ki (α2-adrenergic receptor): 8360 ± 588 nM |
| COc1ccccc1N1CCN(CC2CN=C3c4ccccc4N(C)C(=O)N32)CC1 (stereo not drawn) [Example 23, 3-{4-[1-(2-methoxyphenyl)piperazinyl]}methyl-6-methyl-2,3-dihydroimidazo[1,2-c]quinazolin-5(6H)-one] | 0.36 ± 0.05 | 63 | MBP (2 hr) ([2]; dose 0.25 mg/Kg): 40 mmHg |
| CN1C(=O)N2C(=NCC2CN2CCN(c3ccccc3Cl)CC2)c2ccccc21 (stereo not drawn) [Example 22, 3-{4-[1-(2-chlorophenyl)piperazinyl]}methyl-6-methyl-2,3-dihydroimidazo[1,2-c]quinazolin-5(6H)-one] |  | 50 |  |
| COC1=Nc2ccccc2C2=NCC(CN3CCN(c4ccccc4OC)CC3)N12 (stereo not drawn) [Example 12, 3-{4-[1-(2-Methoxyphenyl)piperazinyl]}methyl-5-methoxy-2,3-dihydroimidazo[1,2-c]quinazoline] | 0.07 ± 0.007 |  |  |
| COc1ccccc1N1CCN(CC2CN=C3c4ccccc4NC(=O)N32)CC1 (stereo not drawn) [Example 18, 3-{4-[1-(2-methoxyphenyl)piperazinyl]}methyl-2,3-dihydroimidazo[1,2-c]quinazolin-5(6H)-one] | 0.45 ± 0.09 | 50 |  |
| COc1ccccc1N1CCN(CC2CN=C3c4ccccc4N=C(SC)N32)CC1 (stereo not drawn) [Example 6, 3-{4-[1-(2-methoxyphenyl)piperazinyl]}methyl-5-methylthio-2,3-dihydroimidazo[1,2-c]quinazoline] | 0.54 ± 0.09 | 70 |  |
| O=C1Nc2ccccc2C2=NCC(CN3CCN(c4ccccc4)CC3)N12 (stereo not drawn) [Example 17, 3-(4-Phenyl-1-piperazinyl)-methyl-2,3-dihydroimidazo[1,2-c]quinazolin-5(6H)-one] |  |  | Ki (α2-adrenergic receptor): 962 ± 29 nM |
| O=C1Nc2ccccc2C2=NCC(CN3CCN(c4ccccc4Cl)CC3)N12 (stereo not drawn) [Example 21, 3-{4-[1-(2-chlorophenyl)piperazinyl]}methyl-2,3-dihydroimidazo[1,2-c]quinazolin-5(6H)-one] | 0.58 ± 0.07 | 35 |  |
